How the values were obtained:
[1] = 20 min at 50° C., relative to glycerol monothioglycolate solution pH 9 = 100%; for Standardized Wave Stability WSN pH = 7: waving solution pH 7, 87 mmol reducing agent/100 g; for Standardized Wave Stability WSN pH = 8: waving solution pH 8, 87 mmol reducing agent/100 g; for Standardized Wave Stability WSN pH = 9: waving solution pH 9, 87 mmol reducing agent/100 g

In the case of `CN(C)C(=O)CS` [Mercaptoacetamide 1, N,N-Dimethylmercaptoacetamide], the “Standardized Wave Stability WSN pH = 7” value [1] is reported as 81%, the “Standardized Wave Stability WSN pH = 8” value [1] is reported as 98% and the “Standardized Wave Stability WSN pH = 9” value [1] is reported as 98%.

For `CCN(CC)C(=O)CS` [Mercaptoacetamide 2, N,N-Diethylmercaptoacetamide], the “Standardized Wave Stability WSN pH = 7” value [1] was 83%, the “Standardized Wave Stability WSN pH = 8” value [1] was 98% and the “Standardized Wave Stability WSN pH = 9” value [1] was 106%.

For `CCN(CCO)C(=O)CS` [Mercaptoacetamide 4, N-Ethyl-N-2′-hydroxyethylmercaptoacetamide], the pKa (pKa determination (H2O)) was 7.604.

For Thiolactic acid [reference compound], the “Standardized Wave Stability WSN pH = 7” value [1] was 57%, the “Standardized Wave Stability WSN pH = 8” value [1] was 50% and the “Standardized Wave Stability WSN pH = 9” value [1] was 70%.

In the case of `CCCCN(C)C(=O)CS` [Mercaptoacetamide 3, N-Butyl-N-methylmercaptoacetamide], the “Standardized Wave Stability WSN pH = 7” value [1] is reported as 63%, the “Standardized Wave Stability WSN pH = 8” value [1] is reported as 67% and the “Standardized Wave Stability WSN pH = 9” value [1] is reported as 87%. The pKa (pKa determination (H2O)) was 7.873.
